Patent US6410250B1 (priority 1996, dated 2002)
“Also recorded” adds a separate entry of the source.

Assays:
[1] = In vivo rescue of dhfr-ts- phenotype with thymidine osmotic pumps; design: species or system mice; settings: continuous thymidine supplementation
[2] = tested on: Starch-elicited peritoneal macrophages; experiment: Infection of starch-elicited peritoneal macrophages in vitro; assay type: cell-based, mouse; settings: thymidine 100 μg/ml added to the medium
L. major = experiment: Growth of L. major promastigotes in liquid medium with drug; assay type: cell-based, Leishmania major
[3] = tested on: draining lymph node cells; assay type: cell-based, mouse

## Cc1cn([C@H]2C[C@H](O)[C@@H](CO)O2)c(=O)[nH]c1=O [thymidine]
[1]
  restoration of animal infectivity of dhfr-ts^− by thymidine supplementation: partially restored; also recorded: partially restore infectivity
[2]
  effect of thymidine on dhfr-ts^− in macrophages: restored both survival and replication

## CN(Cc1cnc2nc(N)nc(N)c2n1)c1ccc(C(=O)N[C@@H](CCC(=O)O)C(=O)O)cc1 [MTX, methotrexate]
L. major; Leishmania major, wild-type or heterozygous (+/HYG) cells, liquid media, read-out: concentration of MTX required to inhibit cell growth by 50% (EC50)
  EC50: ~1000 nM
L. major; dhfr-ts^− NEO/HYG knockout, 100 μM MTX, liquid media
  growth in presence of MTX: grew well

## CN[C@H]1C[C@@H](N)[C@H](O)[C@@H](O[C@@H]2O[C@H](CO)[C@H](O)[C@@H]3OC4(O[C@H]23)O[C@H]([C@@H](N)CO)[C@H](O)[C@H](O)[C@H]4O)[C@@H]1O (stereo partly shown) [hygromycin B]
L. major; +/HYG line
  hygromycin B concentration resulting in a 50% reduction in growth: 200 μg per ml

## bacillus Calmette-Guerin
[3]
  proliferation as [3H]thymidine incorporation: 1100±1000 cpm

B1: ovalbumin (protein, UniProt P01012 2-386, looked up)
Ovalbumin: GSIGAASMEFCFDVFKELKVHHANENIFYCPIAIMSALAMVYLGAKDSTRTQINKVVRFDKLPGFGDSIEAQCGTSVNVHSSLRDILNQITKPNDVYSFSLASRLYAEERYPILPEYLQCVKELYRGGLEPINFQTAADQARELINSWVESQTNGIIRNVLQPSSVDSQTAMVLVNAIVFKGLWEKAFKDEDTQAMPFRVTEQESKPVQMMYQIGLFRVASMASEKMKILELPFASGTMSMLVLLPDEVSGLEQLESIINFEKLTEWTSSNVMEERKIKVYLPRMKMEEKYNLTSVLMAMGITDVFSSSANLSGISSAESLKISQAVHAAHAEINEAGREVVGSAEAGVDAASVSEEFRADHPFLFCIKHIATNAVLFFGRCVSP
notes: antigen preparation used as specificity control in lymph node proliferation assay
[3]
  proliferation as [3H]thymidine incorporation: 2600±1100 cpm
